Assay results taken from PubChem BioAssay AID330 (DTP/NCI, 2004).
Several values for one entry are separate records, joined by “and”; a condition that tells them apart may be missing. Equal entries are not always repeated. Inconclusive results and toxic doses are left out.

System: P388 leukemia ip, CD2F1 mice, survival T/C
Test: NCI In Vivo Anticancer Drug Screen. Data for tumor model P388 Leukemia (intraperitoneal) in CD2F1 (CDF1) mice
Details: endpoint: median survival time, higher = longer survival
Summary of the method: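 Mice carrying the transplanted tumor received test compound or vehicle. Survival was recorded in each group, and the value is the treated-group measurement divided by that of the vehicle-treated control group.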

[1] = dose: 3.12 mg/kg/injection, schedule: Q01DX009 (ip), vehicle: Klucel (hydroxypropylcellulose) (HPC)
[2] = dose: 6.25 mg/kg/injection, schedule: Q01DX009 (ip), vehicle: Klucel (hydroxypropylcellulose) (HPC)
[3] = dose: 50.0 mg/kg/injection, schedule: Q01DX009 (ip), vehicle: Klucel (hydroxypropylcellulose) (HPC)
[4] = dose: 25.0 mg/kg/injection, schedule: Q01DX009 (ip), vehicle: water
[5] = dose: 50.0 mg/kg/injection, schedule: Q01DX009 (ip), vehicle: water
[6] = dose: 100.0 mg/kg/injection, schedule: Q01DX009 (ip), vehicle: Klucel (hydroxypropylcellulose) (HPC)
[7] = dose: 200.0 mg/kg/injection, schedule: Q01DX009 (ip), vehicle: Klucel (hydroxypropylcellulose) (HPC)
[8] = dose: 15.0 mg/kg/injection, schedule: Q01DX005 (ip), vehicle: saline with Tween-80
[9] = dose: 30.0 mg/kg/injection, schedule: Q01DX005 (ip), vehicle: saline with Tween-80
[10] = dose: 60.0 mg/kg/injection, schedule: Q01DX005 (ip), vehicle: saline with Tween-80
[11] = dose: 240.0 mg/kg/injection, schedule: Q01DX005 (ip), vehicle: saline with Tween-80
[12] = dose: 50.0 mg/kg/injection, schedule: Q01DX005 (ip), vehicle: Klucel (hydroxypropylcellulose) (HPC)
[13] = dose: 100.0 mg/kg/injection, schedule: Q01DX005 (ip), vehicle: Klucel (hydroxypropylcellulose) (HPC)
[14] = dose: 200.0 mg/kg/injection, schedule: Q01DX005 (ip), vehicle: Klucel (hydroxypropylcellulose) (HPC)
[15] = dose: 50.0 mg/kg/injection, schedule: Q01DX009 (ip), vehicle: saline with Tween-80
[16] = dose: 100.0 mg/kg/injection, schedule: Q01DX009 (ip), vehicle: saline with Tween-80
[17] = dose: 50.0 mg/kg/injection, schedule: Q01DX005 (ip), vehicle: saline with Tween-80
[18] = dose: 100.0 mg/kg/injection, schedule: Q01DX005 (ip), vehicle: saline with Tween-80
[19] = dose: 200.0 mg/kg/injection, schedule: Q01DX005 (ip), vehicle: saline with Tween-80
[20] = dose: 100.0 mg/kg/injection, schedule: Q04DX003 (ip), vehicle: Klucel (hydroxypropylcellulose) (HPC)
[21] = dose: 200.0 mg/kg/injection, schedule: Q04DX003 (ip), vehicle: Klucel (hydroxypropylcellulose) (HPC)

With `Nc1nc(Sc2ccc([N+](=O)[O-])c3nonc23)c2ncn(C3OC(CO)C(O)C3O)c2n1` (stereo not given) the T/C [1] was 113 % of control, the T/C [2] was 113 % of control and the T/C (dose: 25.0 mg/kg/injection, schedule: Q01DX009 (ip), vehicle: Klucel (hydroxypropylcellulose) (HPC)) was 122 % of control. The T/C [3] was 102 % of control and 118 % of control.
With `[Cl][Pt][Cl].[NH-]CC(=O)O` the T/C [4] was 171 % of control and 185 % of control and the T/C [5] was 104 % of control.
`CCCCC(=O)C(=O)c1ccc(O)cc1O` was tested, and the T/C [3] was 116 % of control, the T/C [6] was 114 % of control and the T/C [7] was 110 % of control.
For `CCOC(=O)C1C(=O)N2C(=O)C(NC(C)=O)=C(O)C2C1c1ccc(OC)cc1` (stereo not given), the T/C (dose: 100.0 mg/kg/injection, schedule: Q04DX002 (ip), vehicle: saline with Tween-80) was 100 % of control, the T/C (dose: 200.0 mg/kg/injection, schedule: Q04DX002 (ip), vehicle: saline with Tween-80) was 100 % of control and the T/C (dose: 400.0 mg/kg/injection, schedule: Q04DX002 (ip), vehicle: saline with Tween-80) was 98 % of control.
With `COc1ccc(/C=N\NC(=O)CNC(=O)Nc2cccc([N+](=O)[O-])c2)cc1O` the T/C [8] was 107 % of control, the T/C [9] was 93 % of control and the T/C [10] was 89 % of control. The T/C [11] was 91 % of control and 93 % of control.
`O=C(c1ccccc1)c1ccccc1-c1nc2ccccc2c(=O)o1` was tested, and the T/C [3] was 100 % of control, the T/C [6] was 95 % of control and the T/C [7] was 109 % of control.
In the case of `CC(=O)NC1=C(Cl)C(=O)c2ccccc2C1=O`, the T/C (dose: 0.78 mg/kg/injection, schedule: Q01DX009 (ip), vehicle: Klucel (hydroxypropylcellulose) (HPC)) is reported as 98 % of control, the T/C (dose: 1.56 mg/kg/injection, schedule: Q01DX009 (ip), vehicle: Klucel (hydroxypropylcellulose) (HPC)) is reported as 100 % of control and the T/C (dose: 3.13 mg/kg/injection, schedule: Q01DX009 (ip), vehicle: Klucel (hydroxypropylcellulose) (HPC)) is reported as 107 % of control. The T/C [2] was 104 % of control and 88 % of control.
In the case of `CC(C)COC(=O)C(CC(C)C)NC(=O)C(C)O` (stereo not given), the T/C (dose: 50.0 mg/kg/injection, schedule: Q01DX001 (ip), vehicle: suspension in saline) is reported as 103 % of control, the T/C [10] is reported as 97 % of control and the T/C (dose: 100.0 mg/kg/injection, schedule: Q01DX001 (ip), vehicle: suspension in saline) is reported as 92 % of control. For the same compound, the T/C (dose: 120.0 mg/kg/injection, schedule: Q01DX005 (ip), vehicle: saline with Tween-80) was 101 % of control, the T/C (dose: 200.0 mg/kg/injection, schedule: Q01DX001 (ip), vehicle: suspension in saline) was 103 % of control and the T/C [11] was 100 % of control. For the same compound, the T/C (dose: 400.0 mg/kg/injection, schedule: Q01DX001 (ip), vehicle: suspension in saline) was 104 % of control.
In the case of `CCCC(=O)NN(Cn1c(=S)sc2ccccc21)Cn1c(=S)sc2ccccc21`, the T/C [12] is reported as 101 % of control, the T/C [13] is reported as 90 % of control and the T/C [14] is reported as 93 % of control.
With `CN1CN(C)CN(Cc2ccc([N+](=O)[O-])cc2)C1` the T/C (dose: 25.0 mg/kg/injection, schedule: Q01DX005 (ip), vehicle: Klucel (hydroxypropylcellulose) (HPC)) was 93 % of control, the T/C [12] was 97 % of control and the T/C [13] was 94 % of control. The T/C [14] was 91 % of control.
In the case of `N#C/C1=C(\C#N)CCC2(C#N)C3C=CC(O3)C2(C#N)CC1` (stereo not given), the T/C [1] is reported as 103 % of control, the T/C [2] is reported as 100 % of control and the T/C (dose: 12.5 mg/kg/injection, schedule: Q01DX009 (ip), vehicle: Klucel (hydroxypropylcellulose) (HPC)) is reported as 100 % of control.
With `O=C(Nc1cc(Cl)c(Cl)cc1Cl)OCc1ccc2c(c1)OCO2` the T/C [8] was 100 % of control, the T/C [9] was 94 % of control and the T/C [10] was 89 % of control and 91 % of control.
With `O=C(N=Nc1c(Cl)c(O)c2ccccc2c1O)C(=O)Nc1ccc(Cl)c([N+](=O)[O-])c1` the T/C [15] was 113 % of control and the T/C [16] was 112 % of control.
`c1ccc(C2=NN=C(c3ccccc3)N(c3ccccc3)N2)cc1` was tested, and the T/C [17] was 105 % of control, the T/C [18] was 97 % of control and the T/C [19] was 97 % of control.
With `Cc1ccc(C2(c3ccccc3)OC(=O)c3ccccc32)cc1` (stereo not given) the T/C (dose: 200.0 mg/kg/injection, schedule: Q01DX009 (ip), vehicle: saline sonified) was 95 % of control.
With `CC(C)C[CH2][Pb]([Cl])([CH2]CC(C)C)[CH2]CC(C)C` the T/C (dose: 0.06 mg/kg/injection, schedule: Q01DX009 (ip), vehicle: saline + alcohol) was 103 % of control, the T/C (dose: 0.13 mg/kg/injection, schedule: Q01DX009 (ip), vehicle: saline + alcohol) was 108 % of control and the T/C (dose: 0.25 mg/kg/injection, schedule: Q01DX009 (ip), vehicle: saline + alcohol) was 105 % of control. The T/C (dose: 0.5 mg/kg/injection, schedule: Q01DX009 (ip), vehicle: saline + alcohol) was 119 % of control, the T/C (dose: 1.0 mg/kg/injection, schedule: Q01DX009 (ip), vehicle: saline + alcohol) was 118 % of control and the T/C (dose: 2.0 mg/kg/injection, schedule: Q01DX009 (ip), vehicle: saline) was 111 % of control. The T/C (dose: 4.0 mg/kg/injection, schedule: Q01DX009 (ip), vehicle: saline) was 110 % of control and the T/C (dose: 8.0 mg/kg/injection, schedule: Q01DX009 (ip), vehicle: saline) was 100 % of control.
In the case of `CCC(=O)/C=C/c1ccc(N(C)C)cc1`, the T/C [20] is reported as 93 % of control and the T/C [21] is reported as 89 % of control.
In the case of `COC1=CC(=O)OC1n1ccc(OC)nc1=O` (stereo not given), the T/C [12] is reported as 100 % of control, the T/C [13] is reported as 95 % of control and the T/C [14] is reported as 95 % of control.
In the case of `COc1cc(NC(=O)OCc2cccnc2)cc(OC)c1OC`, the T/C [17] is reported as 98 % of control, the T/C [18] is reported as 98 % of control and the T/C [19] is reported as 93 % of control.
In the case of `CCOC(=O)c1csc(-c2ccc(COC(=O)c3ccccc3)o2)n1`, the T/C [17] is reported as 100 % of control, the T/C [18] is reported as 96 % of control and the T/C [19] is reported as 89 % of control.
For `CCCCC(CC)CO.[Ti]` (stereo not given), the T/C [15] was 90 % of control, the T/C (dose: 50.0 mg/kg/injection, schedule: Q04DX003 (ip), vehicle: saline with Tween-80) was 100 % of control and the T/C [16] was 109 % of control. For the same compound, the T/C (dose: 100.0 mg/kg/injection, schedule: Q04DX003 (ip), vehicle: saline with Tween-80) was 100 % of control, the T/C (dose: 200.0 mg/kg/injection, schedule: Q01DX009 (ip), vehicle: saline with Tween-80) was 100 % of control and the T/C (dose: 200.0 mg/kg/injection, schedule: Q04DX003 (ip), vehicle: saline with Tween-80) was 100 % of control.
With `COC1CC(OC2CCC3(C)C(=CCC4C3C(OC(C)=O)C(OC(=O)CC(C)C)C3(C)C(C(C)=O)CCC43O)C2)OC(C)C1OC1CC(OC)C(OC2CC(OC)C(OC3OC(C)C(OC4OC(CO)C(O)C(O)C4O)C(OC)C3O)C(C)O2)C(C)O1` (stereo not given) the T/C (dose: 4.13 mg/kg/injection, schedule: Q01DX005 (ip), vehicle: Klucel (hydroxypropylcellulose) (HPC)) was 95 % of control, the T/C (dose: 8.25 mg/kg/injection, schedule: Q01DX005 (ip), vehicle: Klucel (hydroxypropylcellulose) (HPC)) was 101 % of control and the T/C (dose: 16.5 mg/kg/injection, schedule: Q01DX005 (ip), vehicle: Klucel (hydroxypropylcellulose) (HPC)) was 101 % of control.
With `O=NNc1ccc(F)cn1` the T/C (dose: 3.12 mg/kg/injection, schedule: Q01DX009 (ip), vehicle: water) was 117 % of control, the T/C (dose: 12.5 mg/kg/injection, schedule: Q01DX009 (ip), vehicle: water) was 153 % of control and the T/C [4] was 162 % of control and 166 % of control. The T/C [5] was 99 % of control.
`C(=C1\Oc2ccccc2N=C1OCCN1CCOCC1)/c1ccccc1` was tested, and the T/C [20] was 97 % of control, the T/C [21] was 99 % of control and the T/C (dose: 400.0 mg/kg/injection, schedule: Q04DX003 (ip), vehicle: Klucel (hydroxypropylcellulose) (HPC)) was 98 % of control.
For `Fc1ccc(OCCC(Cn2ccnc2)c2ccc(Cl)cc2Cl)cc1` (stereo not given), the T/C (dose: 12.5 mg/kg/injection, schedule: Q01DX009 (ip), vehicle: saline with Tween-80) was 106 % of control, the T/C (dose: 25.0 mg/kg/injection, schedule: Q01DX009 (ip), vehicle: saline with Tween-80) was 106 % of control and the T/C [15] was 88 % of control and 94 % of control.
`CCN1C[C@]2(COC)[C@H](O)C[C@H](OC)[C@]34C1[C@H]([C@H](OC)[C@H]23)[C@]1(OC(C)=O)[C@H]2[C@@H](OC(=O)c3ccccc3)[C@](O)(C[C@H]24)[C@@H](OC)[C@@H]1O` was tested, and the T/C (dose: 0.01 mg/kg/injection, schedule: Q01DX009 (ip), vehicle: saline) was 113 % of control and 88 % of control.
`CNCC(O)CC12CCC(c3ccccc31)c1ccccc12` (stereo not given) was tested, and the T/C [3] was 104 % of control and the T/C [6] was 106 % of control.
